Experimental data reported in publication PMC7018803, “A randomized, placebo-controlled, phase 1 study to evaluate the effects of TAK-063 on ketamine-induced changes in fMRI BOLD signal in healthy subjects” (Psychopharmacology, 2019).

Experiments:
healthy male subjects [1] = experiment: Ketamine-induced changes in fMRI BOLD signal during resting state; type: in vivo, human
Method: (§1) Subjects checked in on day − 1 of each treatment period during which vital signs, electrocardiogram (ECG), and laboratory safety tests were repeated. On day 1 of each treatment period, subjects received a 3-, 10-, or 30-mg TAK-063 dose or placebo tablets. Participants then relaxed, slept, or watched movies while remaining in the research environment. Ketamine (0.12 mg/kg intravenous bolus over 60 s followed by a continuous infusion of 0.31 mg/kg/h over approximately 150 min) was administered 4 h after TAK-063 or placebo (Fig. 1). This ketamine dose was based on a previous study that achieved steady-state concentrations of 75 ng/mL and provided a robust BOLD signal with minimal psychotomimetic symptoms (De Simoni et al. [2013]).
(§2) The scanning protocol for the current study was very comprehensive and included multiple MR approaches. This publication reports the BOLD fMRI data for the working memory task, but also resting state fMRI. The magnetic scanning portion of the neuroimaging test battery was initiated 20 min before ketamine dosing. Imaging was performed using a 3 Tesla Siemens Trio scanner. The MR scanning protocol was initiated 20 min before ketamine dosing; prior to scanning, a structural magnetization prepared rapid gradient echo (MPRAGE) scan was collected. As part of the scanning protocol, each subject received 20 min of scanning − 10 min arterial spin labeling (ASL) plus 10 min resting BOLD prior to ketamine infusion. After ketamine infusion, the resting state fMRI BOLD acquisition continued for an additional 10 min. Next, a Spatial Working Memory task-induced fMRI BOLD acquisition was performed for 15 min. Following these BOLD acquisitions, another 10 min ASL scan was acquired and a 10-min T1 relaxometry scan was conducted. The MR scanning sequence ended with a 5-min MPRAGE acquisition.
Fifty sequential gradient-echo echoplanar images (EPIs) sensitive to blood oxygenation level-dependent (BOLD) signal were collected in contiguous slices of 6-mm thickness, with 3000-ms repetition time, 40-ms echo time, 20 × 20-cm field of view, a 64 × 64 image matrix, 70° flip angle, and an in-plane resolution of 3 × 3 mm. A working memory challenge based on the expectancy A-X Continuous Performance Test (AX-CPT) paradigm was presented. The AX-CPT task was implemented in Eprime and presents 144 trials in four blocks of 36 trials. Before scanning, participants practiced the task (Barch et al. [2001]; MacDonald et al. [2003]).
We conducted a number of pre-processing steps to standardize examination of data after acquisition. These steps included (a) using the anatomical image (T1 weighted MPRAGE acquired for each subject at the beginning of the imaging session) to determine the parameters for spatial normalization to the EPI template image supplied with statistical parametric mapping (SPM) using a 12-parameter transformation; (b) registering functional images to correct for subject movement during the experimental paradigm; (c) normalizing functional images to transform images from analyzed subjects into the same standard space; (d) smoothing images (8-mm full width at half maximum [FWHM]) to minimize normalization artifacts and improve signal to noise ratio; (e) applying a high pass filter of 1200 s to the data following spatial smoothing to minimize the influence of very low frequency noise present in fMRI BOLD data without distorting the ketamine response profile. […]

healthy male subjects [2] = experiment: Ketamine-induced changes in fMRI BOLD signal during working memory task (AX-CPT); type: in vivo, human
Method: as §1
as §2, with “acquisition. […]” for “acquisition.”
The functional imaging analyses for the working memory task was performed using SPM8 (Wellcome Department of Cognitive Neurology, London, UK). […] Data from each subject for each task were analyzed with a fixed box-car function convolved with a model hemodynamic response function. […]

anesthetized rats = test system: anesthetized rats; design: method as in Tomimatsu et al. [2016]; conditions: ref Tomimatsu et al. [2016], cited from earlier work

SMILES: COc1cn(-c2ccc(-n3cccn3)cc2F)nc(-c2ccnn2-c2ccccc2)c1=O [TAK-063]
- effect sizes at the 10-mg dose (healthy male subjects [1]; 10 mg, ketamine-induced BOLD changes, resting state): generally smaller relative to the effects of other dose groups
- effect on ketamine-induced changes in resting state fMRI BOLD signals (healthy male subjects [1]; many key regions examined, 3-30 mg): meaningful effect attenuating ketamine-induced changes
- effect size in right substantia nigra, left thalamus and left ventrolateral prefrontal cortex (healthy male subjects [2]; 10 mg, working memory task, small non-negative effects): < 0.15
- effect in left amygdala (healthy male subjects [2]; 30 mg, working memory task): small non-negative effect
- effect on Cohen's effect size for fMRI BOLD signal during working memory task (healthy male subjects [2]; across all doses): decreased the Cohen’s effect size for fMRI BOLD signal in many brain regions
- ketamine-induced increases in percent BOLD signal change in cortical regions (anesthetized rats; anesthetized rats, hippocampus, cingulate and retrosplenial cortex): reduced
- percent BOLD signal change during the resting state in caudate putamen and substantia nigra (anesthetized rats; rat): increased
